Entries after “also recorded” stand apart in the source; their conditions may differ.
Assays:
Format in all cases: cell-based
[1] = system: FGF-1-induced differentiation of human subcutaneous preadipocytes; test: PLC inhibition of FGF-1-induced differentiation (G3PDH activity); details: inhibitor present during replication phase, differentiation phase or both, SFM including rosiglitazone
Protocol: Human subcutaneous preadipocytes were isolated and subcultured in SCM in the presence and absence of FGF-1 with and without the PLC inhibitor U-73122 (Calbiochem). Cells were then allowed to reach confluence and differentiated using the standard chemically-modified SFM including rosiglitazone in the presence and absence of FGF1 with and without U-73122. Differentiation was assessed by G3PDH activity.

[2] = system: human preadipocytes (subcutaneous and omental); test: Preadipocyte proliferation assay (formazan/MTS colorimetric assay); details: for proliferation of human preadipocytes in response to growth factor: SCM + growth factors at 1 ng/mL for 48 hrs, relative to SCM control, MTS assay
Protocol: Subcutaneous and omental preadipocytes and human skin fibroblasts are plated separately at about 1×10^3 cells/well (subconfluent) in 96-well plates in DMEM/Ham's F12 1:1 plus 10% FCS (PA growth medium) and allowed to adhere at 37° C., 5% CO2 for 16-20 hrs. The medium is then changed to EC growth medium which is conditioned (see above) by exposure to either confluent subcutaneous or omental MVEC, human skin fibroblasts (HSF), or wells containing no cells (blank control) (each treatment is done in quadruplicate). In separate experiments subcutaneous and omental PAs are plated as above and subsequently treated with either S MVEC, O MVEC, human dermal EC(CADMEC) conditioned media, fresh EC growth medium, or blank control. After 48 hrs, preadipocyte cell number is assessed using a formazan colorimetric assay (Promega). The water soluble tetrazolium salt 3-(4,5-dimethylthiazol-2-yl)-5-(3-carboxymethoxyphenyl)-2-(4-sulfophenyl)-2H-tetrazolium (MTS) is added to each well at a concentration of 200 μg/mL. After incubation at 37° C. for 4 hrs, absorbance at 490 nm is measured using a Bio-Rad 3550 microplate reader. The validity of this assay is tested in two ways; 1) preadipocytes were plated at 250; 500; 1000; 2000; 4000 cells per well (in quadruplicate) and absorbance is measured at 490 nm; 2) after measurement at A490 nm the cells are subsequently stained with propidium iodide and direct cell counts carried out using fluorescence microscopy.
Preadipocytes were isolated and plated in 96-well plates at 500 cells/well (sub-confluent) in serum containing medium for 12-18 hrs to allow adherence. Cells were then incubated in SCM+growth factors at 1 ng/mL for 48 hrs and a MTS proliferation assay (Promega) was performed.

[3] = system: subcutaneous human preadipocytes gene expression; test: Microarray analysis of human preadipocyte gene expression (Affymetrix); details: confluent preadipocytes in SCM+FGF1 vs SCM; change of at least 50% (CV<5%)
Protocol: Total RNA was isolated from confluent subcutaneous human preadipocytes isolated and grown in either SCM (control) or SCM+FGF1. cRNA was prepared and hybridized to chips and subsequently analyzed using the Affymetrix® system. Each treatment was represented by duplicate samples and two independent experiments were performed. Gene expression was considered to be influenced by FGF-1 if expression was consistently (CV<5%) increased or reduced by at least 50%.

PLCγ2 = test: PLCγ expression in human preadipocytes (indirect immunofluorescence, Western blot); details: grown to confluence in SCM + FGF-1 vs SCM alone; immunofluorescence and Western blot
Protocol: Expression of phospholipase Cγ2 (PLCγ2) protein is analyzed using Western blotting with immunofluorescent labeling procedures using a monoclonal anti-PLCγ2 antibody (Santa Cruz sc-5283).
Human preadipocytes were cultured in SCM+/−FGF-1 in 24-well plates. PLCγ expression was examined by indirect immuno-fluorescence. Non-immune primary and secondary antibody-only controls gave no staining.

[4] = system: human omental and subcutaneous preadipocytes; test: Differentiation of human preadipocytes in serum-containing medium (cytoplasmic lipid accumulation); details: subcultured in SCM+FGF-1, differentiated in SCM plus insulin and (days 1-3) dexamethasone and rosiglitazone; vs SCM alone
Text: A standard requirement of human preadipocyte differentiation in vitro is the obligatory withdrawal of serum. This contrasts with the murine adipocyte cell lines (e.g., 3T3-L1) that have high differentiation potential in SCM. It is assumed that the culture system developed for the human cells either induces down-regulation of factors necessary for differentiation, or promotes the expression of anti-differentiative factors (or both). In these experiments human omental and subcutaneous preadipocytes were isolated and subcultured in the presence of FGF-1. Cells were then differentiated in SCM plus insulin and (days 1-3) dexamethasone and rosiglitazone.

[5] = system: human preadipocytes (omental and subcutaneous); test: Preadipocyte differentiation assessed by G3PDH activity; details: for adipogenic effect of FGF present during replication and/or differentiation (combination treatments): SCM +/- FGF during replication, SFM+rosiglitazone +/- FGF during differentiation, G3PDH activity; for preadipocyte differentiation / adipogenic effect (summary statements): human preadipocytes cultured with the growth factor; for differentiation of human preadipocytes after exposure to growth factor or MVEC-conditioned medium during subculture: subcultured up to 2 months with growth factor or EC-DMEM, differentiated in serum-free medium including 0.10M Rosiglitazone, G3PDH assay at day 21
Protocol: Activity is assessed as previously described (Adams et al. J Clin Invest 100: 3149-53 1998) (Hutley et al in Primary Mesenchymal Cells 1st ed. Kluwer Academic 5: 173-87 2001).
For differentiation experiments, preadipocytes were isolated and subcultured in endothelial cell-conditioned medium (EC-DMEM) or in the presence of growth factor for up to 2 months and then allowed to reach confluence in 6-well plates. Cells were then differentiated in serum-free, chemically modified differentiation medium including 0.10M Rosiglitazone. Differentiation was assessed at day 21 using a standard G3PDH assay.
Human omental and subcutaneous preadipocytes were isolated and subcultured in SCM in the presence and absence of FGF-1 or FGF-2. Upon reaching confluence, the cells were differentiated in standard chemically modified SFM+rosiglitazone in the presence and absence of FGF-1 or FGF-2. Differentiation was assessed by G3PDH activity. […] Presence throughout both processes was additive.

| Compound | FGF-1-induced differentiation in the presence of PLC inhibitor [1] | proliferation of human preadipocytes in response to growth factor [2] | preadipocyte growth and replication (summary statements) ([2]; human preadipocytes cultured with the growth factor) | C/EBPα gene expression [3] | FGFR-1 gene expression [3] | FGFR-2 gene expression [3] | FGFR-3 gene expression [3] | PLCγ2 gene expression [3] | PPARγ gene expression [3] | PLCγ2 protein expression in human preadipocytes (PLCγ2) | differentiation in the presence of serum (cytoplasmic lipid accumulation) [4] | differentiation potential of preadipocytes grown with purified FGF-1 ([5]; FGF-1 present from the time of isolation, compared with absence of FGF-1 or other MVEC-derived factors, data not shown) | adipogenic effect of FGF present during replication and/or differentiation (combination treatments) [5] | preadipocyte differentiation / adipogenic effect (summary statements) [5] | differentiation of human preadipocytes after exposure to growth factor or MVEC-conditioned medium during subculture [5] |
| --- | --- | --- | --- | --- | --- | --- | --- | --- | --- | --- | --- | --- | --- | --- | --- |
| COc1ccc2c(c1)CC[C@@H]1[C@@H]2CC[C@]2(C)[C@@H](NCCCCCCN3C(=O)C=CC3=O)CC[C@@H]12 [U-73122] | significantly impaired |  |  |  |  |  |  |  |  |  |  |  |  |  |  |
| FGF-1: acidic fibroblast growth factor (aFGF), also known as FGF-1 |  | marked increase in proliferation | markedly promoted their growth and replication; also recorded: promotes human preadipocyte replication | upregulation | Up-regulation | Up-regulation | down-regulation | Increased expression | upregulation | increased | significant differentiation | similar, but not additive, increase in differentiation potential | adipogenic if present either during replication or during differentiation; also recorded: greater adipogenic effect than FGF-2 | significant positive effect on the differentiation; also recorded: dramatically increases potential for subsequent differentiation | more pronounced effect than FGF-2; also recorded: marked increase in differentiation |
| FGF-2: basic FGF (also known as FGF-2) |  | marked increase in proliferation |  |  |  |  |  |  |  |  |  |  | adipogenic if present either during replication or during differentiation | pro-adipogenic effect | greater that the effect seen with IGF-1; also recorded: marked increase in differentiation |

From patent publication US20140221455A1, “DIFFERENTIATION MODULATING AGENTS AND USES THEREFOR” (Verva Pharmaceuticals, Inc., priority 2002, published 2014)
